# Data reported in patent US20260184708A1, “PYRIDAZINONES AND METHODS OF USE THEREOF” (GFB (ABC), LLC, priority 2017, published 2026).
# Molecular target: T1, TRPC4 (Homo sapiens, UniProt Q9UBN4)
# T1 construct: expressed in transfected cells; host or cells: HEK-TREx (HekTrex-293), cell line ICLN-1694, tetracycline-induced
# T1 sequence (Q9UBN4 1-982 isoform Q9UBN4-5): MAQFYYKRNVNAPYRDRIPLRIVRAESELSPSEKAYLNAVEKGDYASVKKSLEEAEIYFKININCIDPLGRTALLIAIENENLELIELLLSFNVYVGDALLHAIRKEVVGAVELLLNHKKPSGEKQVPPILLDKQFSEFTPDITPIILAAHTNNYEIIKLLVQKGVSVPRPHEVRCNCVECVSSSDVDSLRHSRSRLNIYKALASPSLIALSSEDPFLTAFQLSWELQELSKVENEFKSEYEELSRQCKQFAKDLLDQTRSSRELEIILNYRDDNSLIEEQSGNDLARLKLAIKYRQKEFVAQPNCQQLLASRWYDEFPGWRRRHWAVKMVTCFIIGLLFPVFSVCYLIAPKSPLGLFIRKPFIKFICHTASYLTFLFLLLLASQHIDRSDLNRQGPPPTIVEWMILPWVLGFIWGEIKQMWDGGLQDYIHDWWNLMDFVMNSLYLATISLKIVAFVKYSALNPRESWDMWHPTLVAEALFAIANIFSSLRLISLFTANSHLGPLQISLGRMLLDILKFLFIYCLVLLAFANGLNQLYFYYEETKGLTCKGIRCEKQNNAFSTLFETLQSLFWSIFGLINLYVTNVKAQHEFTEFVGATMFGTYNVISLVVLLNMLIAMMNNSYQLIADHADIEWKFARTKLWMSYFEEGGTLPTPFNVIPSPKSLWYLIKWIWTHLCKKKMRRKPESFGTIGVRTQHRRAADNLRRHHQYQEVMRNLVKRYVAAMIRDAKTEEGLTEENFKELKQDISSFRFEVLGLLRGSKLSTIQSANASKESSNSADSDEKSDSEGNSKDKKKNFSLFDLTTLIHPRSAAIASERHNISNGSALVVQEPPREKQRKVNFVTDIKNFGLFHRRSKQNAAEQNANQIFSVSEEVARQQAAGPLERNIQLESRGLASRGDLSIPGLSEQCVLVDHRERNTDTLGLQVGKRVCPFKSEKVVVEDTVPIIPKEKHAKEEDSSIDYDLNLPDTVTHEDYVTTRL
# Assay: TRPC4 FLIPR Assay (HEK-TREx hTRPC4, Englerin A stimulation)
# Assay type: cell-based
# Conditions: Table 8; HEK-TREx hTRPC4; read-out: TRPC4 FLIPR IC50
# Procedure: FLIPR Assay Buffer (Earls Balanced Salt Solution (EBSS)) was prepared as follows:
# 10-point dose response curves were generated using the Echo-550 acoustic dispenser. Compound source plates were made by serially diluting compound stocks to create 10 mM, 1 mM, and 0.1 mM solutions in DMSO into Echo certified LDV plates. The Echo then serially spotted 100% DMSO stock solutions into source dose response plates to generate a 4-fold dilution scheme. 100% DMSO was added to the spotted dose response plates to bring the final volume to 5 μl. […] of the dose response stock plate was then spotted into pre-incubation and stimulation assay plates. […] of pre-incubation buffer and 100 μl of stimulation buffer was then added to the plates resulting in a final assay test concentration range of 30 μM to 0.0001 μM with a final DMSO concentration of 0.3%.
# Experimental Methods: Cells expressing TRPC4 were plated onto 384 well, black pdl-coated microplates and maintained in TRPC4 growth media the day prior to use for experiments. TRPC4 expression was induced by the application of 1 μg/ml tetracycline at the time of plating. […] Cells were incubated at room temperature, protected from light, for 60-90 minutes. After the incubation period, the dye was removed and replaced with 10 μl of EBSS. Cell, pre-incubation and stimulation plates were loaded onto the FLIPR-II and the assay was initiated. The FLIPR measured a 10 second baseline and then added 10 μl of 2× compounds (or controls). Changes in fluorescence were monitored for an additional 5 minutes. After a 5 minute pre-incubation, 20 μl of 2× Englerin A (with 1× compound or controls) was added to the cell plate. The final Engerlin A stimulation concentration in the assay is 100 nM. After the Englerin A addition, changes in fluorescence were monitored for an additional 5 minutes.
# Test Agent Effect: Test agent modulation of TRPC4 calcium response was determined as follows. After the Englerin A, fluorescence was monitored for a 5 minute period. The maximum relative fluorescence response (minus the control response of […] of the control inhibitor) was captured and exported from the FLIPR. Test agent effect was calculated as % inhibition using the following formula: % inhibition=((RFU TEST AGENT−Plate Average RFU REF INHIB)/(Plate Average RFU CONTROL−Plate Average RFU REF INHIB))×100
row,Structure (SMILES),IC50 [nM]
1,C[C@@H](c1ccc(F)cc1C(F)F)n1nnc2c1CCN(c1cn[nH]c(=O)c1Cl)C2 [drawing 981],0.01 to 1000
2,CNC(=O)c1nn([C@H](C)c2ccccc2C(F)F)c2c1CN(c1cn[nH]c(=O)c1Cl)CC2 [drawing 982],0.01 to 1000
3,C[C@@H]1Cc2c(c(C(N)=O)nn2Cc2ccccc2C(F)(F)F)CN1c1cn[nH]c(=O)c1Cl [drawing 986],0.01 to 1000
4,C[C@H](c1ccc(F)cc1C(F)(F)F)N1C[C@@H](C)N(c2cn[nH]c(=O)c2Cl)CC1=O [drawing 992],0.01 to 1000
5,O=c1[nH]ncc(N2CCc3c(nnn3Cc3ccc(F)cc3CC(F)(F)F)C2)c1Cl [drawing 994],0.01 to 1000
6,O=c1[nH]ncc(N2CCc3c(ncn3Cc3ccc(F)cc3Cl)C2)c1Cl [drawing 998],0.01 to 1000
7,O=c1[nH]ncc(N2CCc3c(ncn3Cc3ccccc3Cl)C2)c1Cl [drawing 1000],0.01 to 1000
8,C[C@@H](c1ccccc1Cl)n1nnc2c1CCN(c1cn[nH]c(=O)c1Cl)C2 [drawing 1001],0.01 to 1000
9,CS(=O)(=O)c1nc2c(n1Cc1ccccc1C(F)(F)F)CCN(c1cn[nH]c(=O)c1Cl)C2 [drawing 1002],0.01 to 1000
10,CN(c1ncc2c(n1)CN(c1cn[nH]c(=O)c1Cl)C2)c1ccc(F)cc1Cl [drawing 1003],0.01 to 1000
11,CCN(c1ncc2c(n1)CN(c1cn[nH]c(=O)c1Cl)C2)c1ccccc1Cl [drawing 1004],0.01 to 1000
12,CCc1ncccc1N(C)c1ncc2c(n1)CN(c1cn[nH]c(=O)c1Cl)C2 [drawing 1006],0.01 to 1000
13,Cc1ccccc1CN1CCN(c2cn[nH]c(=O)c2Cl)CC1=O [drawing 1008],0.01 to 1000
14,Cc1cc(F)ccc1CN1CCN(c2cn[nH]c(=O)c2Cl)CC1 [drawing 1012],5000 to 10000
15,O=C1CN(c2cn[nH]c(=O)c2Cl)CCN1Cc1ccccc1OC(F)(F)F [drawing 1015],0.01 to 1000
16,C[C@@H]1CN(Cc2ccccc2C(F)(F)F)CCN1c1cn[nH]c(=O)c1Cl [drawing 1016],5000 to 10000
17,Cc1ncccc1CN1CCN(c2cn[nH]c(=O)c2Cl)CC1 [drawing 1017],1000 to 5000
18,Cc1cc(Cl)ccc1CN1CCN(c2cn[nH]c(=O)c2Cl)CC1=O [drawing 1018],1000 to 5000
19,COc1cc(F)ccc1CN1CCN(c2cn[nH]c(=O)c2Cl)CC1=O [drawing 1021],1000 to 5000

# The next lines start with the values.
row,IC50 [nM],Structure (SMILES)
1,0.01 to 1000,C[C@@H](c1ccccc1C(F)F)n1nnc2c1CCN(c1cn[nH]c(=O)c1Cl)C2 [drawing 980]
2,0.01 to 1000,CC(c1ccc(F)cc1C(F)F)n1nc(C(N)=O)c2c1CCN(c1cn[nH]c(=O)c1Cl)C2 (centres unmarked) [drawing 983]
3,0.01 to 1000,CNC(=O)c1nn(Cc2ccc(F)cc2C(F)F)c2c1CN(c1cn[nH]c(=O)c1Cl)CC2 [drawing 985]
4,0.01 to 1000,C[C@@H](c1ccccc1C(F)(F)F)N1CCN(c2cn[nH]c(=O)c2Cl)CC1=O [drawing 987]
5,0.01 to 1000,COC[C@H](c1ccccc1C(F)(F)F)n1cnc2c1CCN(c1cn[nH]c(=O)c1Cl)C2 [drawing 988]
6,0.01 to 1000,C[C@H](c1ccccc1C(F)(F)F)n1nc(C(N)=O)c2c1CCN(c1cn[nH]c(=O)c1Cl)C2 [drawing 990]
7,0.01 to 1000,C[C@@H](c1cccnc1CC(F)F)n1nnc2c1CCN(c1cn[nH]c(=O)c1Cl)C2 [drawing 991]
8,0.01 to 1000,C[C@@H](c1ccc(F)cc1C(F)(F)F)N1CCN(c2cn[nH]c(=O)c2Cl)CC1=O [drawing 993]
9,0.01 to 1000,C[C@H](c1ccccc1Cl)n1nnc2c1CCN(c1cn[nH]c(=O)c1Cl)C2 [drawing 995]
10,0.01 to 1000,CNC(=O)c1nc2c(n1Cc1ccccc1C(F)(F)F)CCN(c1cn[nH]c(=O)c1Cl)C2 [drawing 996]
11,0.01 to 1000,NC(=O)c1nc2c(n1Cc1ccccc1C(F)(F)F)CCN(c1cn[nH]c(=O)c1Cl)C2 [drawing 997]
12,0.01 to 1000,O=c1[nH]ncc(N2CCc3c(Cc4ccc(F)cc4C(F)(F)F)n[nH]c3C2)c1Cl [drawing 1005]
13,0.01 to 1000,O=C1CN(c2cn[nH]c(=O)c2Br)CCN1Cc1cccc2ccccc12 [drawing 1009]
14,1000 to 5000,O=c1[nH]ncc(N2CCN(Cc3ccccc3Cl)CC2)c1Cl [drawing 1010]
15,0.01 to 1000,O=C1CN(c2cn[nH]c(=O)c2Cl)CCN1Cc1ccc(F)cc1Cl [drawing 1013]
16,1000 to 5000,O=C1CN(c2cn[nH]c(=O)c2Cl)CCN1Cc1ccc(F)cc1F [drawing 1014]
17,10000 to 500000,Cc1ccccc1[C@H](C)N1CCN(c2cn[nH]c(=O)c2Cl)CC1=O [drawing 1020]

# Same assay, conditions: Table 10; HEK-TREx hTRPC4; read-out: TRPC4-FLIPR ICSO
row,IC50 [nM],Structure (SMILES)
1,0.01 to 1000,CN1CCN(Cc2nn(Cc3ccccc3C(F)F)c3c2CN(c2cn[nH]c(=O)c2Cl)CC3)C(=O)C1 [drawing 1091]

# Molecular target: T2, TRPC5 (Homo sapiens, UniProt Q9UL62)
# T2 construct: expressed in transfected cells; host or cells: HEK 293
# T2 sequence (Q9UL62 1-973): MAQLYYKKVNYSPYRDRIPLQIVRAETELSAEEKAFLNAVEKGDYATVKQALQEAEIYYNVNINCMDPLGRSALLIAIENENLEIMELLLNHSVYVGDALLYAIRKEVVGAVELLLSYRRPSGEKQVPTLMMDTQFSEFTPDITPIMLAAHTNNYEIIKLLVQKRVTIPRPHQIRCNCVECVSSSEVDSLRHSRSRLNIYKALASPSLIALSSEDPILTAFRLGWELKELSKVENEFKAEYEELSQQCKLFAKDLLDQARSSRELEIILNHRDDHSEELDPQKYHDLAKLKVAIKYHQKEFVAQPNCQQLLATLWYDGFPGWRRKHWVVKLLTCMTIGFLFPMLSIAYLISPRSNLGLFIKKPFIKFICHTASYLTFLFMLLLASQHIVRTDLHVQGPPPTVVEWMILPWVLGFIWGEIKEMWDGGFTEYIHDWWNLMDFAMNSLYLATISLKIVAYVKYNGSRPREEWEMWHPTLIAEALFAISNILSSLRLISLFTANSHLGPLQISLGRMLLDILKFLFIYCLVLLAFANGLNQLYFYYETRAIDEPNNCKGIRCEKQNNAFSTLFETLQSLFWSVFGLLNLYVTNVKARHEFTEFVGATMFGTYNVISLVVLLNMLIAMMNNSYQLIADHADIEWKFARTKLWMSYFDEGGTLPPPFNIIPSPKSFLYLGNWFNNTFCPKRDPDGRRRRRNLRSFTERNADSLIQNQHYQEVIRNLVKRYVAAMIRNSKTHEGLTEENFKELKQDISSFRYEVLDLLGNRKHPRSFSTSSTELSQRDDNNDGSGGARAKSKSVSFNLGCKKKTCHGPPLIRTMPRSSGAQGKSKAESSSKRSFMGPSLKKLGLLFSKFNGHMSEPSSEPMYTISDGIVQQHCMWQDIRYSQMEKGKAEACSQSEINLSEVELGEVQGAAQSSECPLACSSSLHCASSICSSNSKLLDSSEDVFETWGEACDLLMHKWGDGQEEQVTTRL
# Assay: TRPC5 fluorescence assay, membrane potential dye, flexstation (FLEX)
# Assay type: cell-based
# Conditions: Table 6; HEK293 cells overexpressing TRPC5
# Procedure: HEK 293 cells expressing human TRPC5 cells were trypsinised, counted and seeded in black, clear-bottomed 96-well plates at a density of 50,000 cells per well and incubated overnight. Next day, the cells were loaded with membrane potential dye. Dye solution was made up according to the manufacturer's instructions in HEPES buffered Hank's balanced salt solution (HBSS). Dye solution (10 μL) was added to the wells and incubated at 37° C. for 1 hour. The test compounds and standard inhibitors were added to the wells and incubated at room temperature for 10 minutes. The plates were then placed in the flexstation and fluorescence monitored every 1.52 seconds. After 20 seconds, 10 μL of the appropriate standard agonist was added and the fluorescence monitored for 2 minutes at ex/emm: 530 nm/565 nm.
row,Structure (SMILES),IC50 [nM]
1,N#Cc1c(N2CCc3ncn(Cc4cncc(F)c4)c3C2)cn[nH]c1=O,1000 to 5000
2,N#Cc1c(N2CCc3c(ncn3Cc3cncc(F)c3)C2)cn[nH]c1=O,0.01 to 1000

# Continued, values first:
row,IC50 [nM],Structure (SMILES)
1,0.01 to 1000,N#Cc1c(N2CCc3ncn(Cc4ccccc4C(F)F)c3C2)cn[nH]c1=O
2,0.01 to 1000,C[C@H](c1ccccc1C(F)(F)F)n1nnc2c1CCN(c1cn[nH]c(=O)c1C#N)C2
